Source: patent publication US20230233500A1, “Gasdermin D (GSDMD) Succination for the Treatment of Inflammatory Disease” (University of Massachusetts, priority 2020, published 2023)
Structures can show the parent of a compound that is named as a salt.

Key:
Assay type in all cases: cell-based, mouse
GAPDH target gene iNos = assay: QPCR/immunoblot of iNos in BMDMs; conditions: WT BMDMs, HA 1 μM 1 hour, LPS 3 or 6 hours
Method: (§1) FIGS. 7A-K. Fumarate regulates pyroptosis independently of NRF2 and GAPDH. (A-B) Kinetic cell death data of WT primary BMDMs treated with LPS for 2 hours, DMSO (vehicle) or fumarate (25 μM) or heptilidic acid (HA) (0.5 μM or 1 μM) (A) or ML385 (1 μM) (B) followed by nigericin (10 μM) for 6 hours. (C-D) LDH (C) and IL-1B (D) release from WT primary BMDMs treated with LPS for 2 hours, DMSO (vehicle) or fumarate (25 μM) for 1 hour, HA or ML385 (1 μM) for 1 hour followed by nigericin (10 μM) or 1 hour. (E-F) Immunoblot analysis of GSDMD in cell lysates from WT BMDMs treated as in (B) with the indicated inhibitors. (G-H) QPCR (G) and immunoblot (H) analysis of iNos in WT BMDMs treated with DMSO (vehicle) or HA (1 μM) for 1 hour and LPS for 3 (G) or 6 (H) hours. (I) QPCR analysis of Hmox1 mRNA in WT BMDMs treated with DMSO (vehicle) or ML385 (1 μM) for 3 hours. (J-K) LDH assay (J) and immunoblot analysis of GSDMD (K) in WT BMDMs transfected with control non-targeting siRNA or NRF2-specific siRNAs (50 nM) for 48 hours followed by treatment with LPS for 2 hours, DMSO (vehicle) or fumarate (25 μM) and nigericin (10 μM) or 1 hour. A, B, E, F, H, K representative images from 3 independent experiments. C, D, G, I, K pooled data from 3 independent experiments. *, P<0.01, ****, P<0.00001 (Two-way ANOVA). Error bars show means±SD (A, B) or SEM (C, D, G, I, J).

[1] = tested on: Bone marrow-derived macrophages (BMDMs); assay: LPS-nigericin inflammasome activation/pyroptosis in BMDMs; conditions: for LPS-Nig-induced release of LDH / LPS-Nig-induced release of IL-1β / kinetic cell death / formation of GSDMD-N: WT BMDMs; for LPS-Nig-induced release of LDH / LPS-Nig-induced release of IL-1β / LPS-Nig induced pyroptosis (inhibitory effect): LPS 2 hr; for LPS-Nig-induced release of LDH / LPS-Nig-induced release of IL-1β: compound 1 hour (fumarate 25 μM), then nigericin; for LPS-Nig-induced release of IL-1β: ELISA; for kinetic cell death / formation of GSDMD-N: LPS-Nig; for kinetic cell death: SYTOX orange, 0-6 hrs; for formation of GSDMD-N: immunoblot; for LPS-Nig induced pyroptosis (inhibitory effect): BMDMs, compound 25 μM 1 hour, nigericin
Method: Human kidney cell line HEK293T was cultured in Dulbecco's modified Eagle's medium supplemented with 10% (v/v) fetal bovine serum, 100 U/ml penicillin and 100 µg/ml streptomycin. Human peripheral blood monocyte cell line, THP1 cells were cultured in RPMI-1640 medium supplemented with 10% (v/v) fetal bovine serum, 100 U/ml penicillin and 100 µg/ml streptomycin. For isolation of BMDMs, tibias and femurs were removed from wild type and GsdmD^−/− mice and bone marrow was flushed with complete DMEM-medium. Cells were plated in medium containing 20% (v/v) conditioned medium of L929 mouse fibroblasts cultured for 7 days at 37° C. in a humidified atmosphere of 5% C02. Medium was replaced every 3 days.
Conditioned media or serum was collected as indicated and IL-1β or TNF-α, were quantified by sandwich ELISA (R&D Systems).
Cells were plated, treated and incubated in phenol red free medium. Following treatment medium was collected and assessed for LDH release using the CytoTox96 non-radioactive cytotoxicity assay (Promega) as per manufacturer's instructions. Kinetic cell death assays were performed using SytoxOrange and the Biotek Cytation5.
For noncanonical inflammasome activation, cells were primed with […] Pam3CSK4 (Invivogen) for 2 h, followed by transfection of LPS (2 μg/ml) using Lipofectamine 2000 for 16 hours.
Primary BMDMs from WT or GsdmD^−/− mice were cultured in 12-well plates (1×10^6 cells per ml; 1 ml) or 10 cm dishes (2×10^6 cells per ml; 10 ml). HEK293T cells (2.5×10^5 cells per ml; 3 ml) were cultured in 6-well plates and transfected with FLAG-tagged GSDMD constructs where indicated. For cell lysate analysis cells were lysed directly in 1× Lamelli sample buffer. For native gel analysis cells were lysed in NP-40 lysis buffer (50 mM Tris-HCl, pH 7.4, containing 150 mM NaCl, 0.5% (w/v) IgePal, 50 mM NaF, 1 mM Na3VO4, 1 mM dithiothreitol, 1 mM phenylmethylsulfonyl fluoride and protease inhibitor cocktail. For immunoprecipitation of GSDMD, cells were treated as indicated and then collected in 500 μl RIPA buffer, followed by incubation for 15 min on ice. Lysates were incubated with GSDMD antibody and protein A-protein G-agarose was added to each sample, followed by incubation overnight at 4° C. Immunoprecipitates were collected by centrifugation and washed four times with 1 ml of RIPA buffer. Immunprecipates were eluted from beads using 1× sample buffer. Samples were resolved by SDS-PAGE and stained using simply blue safe stain or transferred to nitrocellulose membranes and analyzed by immunoblot. Immunoreactivity was visualized by the Odyssey Imaging System (LICOR Biosciences). For immunoblotting of IL-1β in cell supernatants, conditioned medium was collected and filtered using filter spin columns to reduce salt and remove abundant serum proteins. Filtrates were added to 4×SDS-PAGE sample buffer and resolved by SDS-PAGE for immunoblot analysis. GSDMD (ab209845) and GSDME antibodies were from abcam (ab215191). Caspase 1 antibody was from adipogen. Fumarase antibody was from cell signalling and anti-β-actin (AC-15; A1978) were from Sigma; anti-mouse IRDye™ 680 (926-68070) and anti-rabbit IRDye™ 800 (926-32211) were from LI-COR Biosciences.
Numerous studies have shown that cell metabolism impacts inflammatory responses. LPS activated macrophages switch from oxidative phosphorylation to aerobic glycolysis. Krebs cycle intermediates such as succinate and itaconate accumulate and moonlight as positive and negative regulators of inflammatory gene expression (3-8). To determine if Krebs cycle intermediates modulate pyroptosis, we tested their effect on inflammasome responses. Bone marrow-derived macrophages (BMDMs) were primed with LPS (2 hr) before being exposed to metabolites and then exposed to nigericin (Nig) and inflammasome activation/pyroptosis measured. The metabolites were added after LPS to avoid any impact on transcription. […] Fumarate impaired kinetic cell death (0-6 hrs) (FIG. 1E, FIG. 5A). […]

NRF2 target gene Hmox1 = assay: QPCR of Hmox1 mRNA in BMDMs; conditions: WT BMDMs, ML385 1 μM 3 hours
Method: as §1

SMILES	expression of GAPDH target gene iNos (GAPDH target gene iNos)	LPS-Nig-induced release of LDH [1]	LPS-Nig-induced release of IL-1β [1]	kinetic cell death [1]	formation of GSDMD-N [1]	LPS-Nig induced pyroptosis (inhibitory effect) [1]	expression of NRF2 target gene Hmox1 (NRF2 target gene Hmox1)
CC(C)[C@H]1CC[C@@]2(CO2)[C@H]2C(=O)OCC(C(=O)O)=C[C@H]12 [Heptilidic acid]	inhibited	no impact	no impact	no impact	no impact		
COC(=O)/C=C/C(=O)OCCN1C(=O)CCC1=O [diroximel fumarate]					blocked	blocked	
COC(=O)/C=C/C(=O)O [MMF, Monomethyl fumarate]						no inhibitory effect	
CCN(CC)C(=O)COC(=O)/C=C/C(=O)OC [tepilamide fumarate]					blocked	blocked	
Cc1ccccc1C(=O)N1CCc2cc(-c3nc(NC(=O)Cc4ccc5c(c4)OCO5)sc3C)ccc21 [ML385]		no impact	no impact	no impact	no impact		inhibited
